Assay results reported in the supplement of paper PMC10307832.

Each cell line was assayed with C[C@@H](C(=O)N[C@@H](C1CCCCC1)C(=O)N2CCC[C@H]2C(=O)N[C@@H]3[C@@H](CC4=CC=CC=C34)OCC#CC#CCO[C@@H]5CC6=CC=CC=C6[C@@H]5NC(=O)[C@@H]7CCCN7C(=O)[C@H](C8CCCCC8)NC(=O)[C@H](C)NC)NC [AZD5582] + CCNC(=O)c1noc(-c2cc(C(C)C)c(O)cc2O)c1-c1ccc(CN2CCOCC2)cc1 [Luminespib] (partner 0.01 µM) (assay: relative viability (nuclei count vs DMSO), 5 days (fraction); higher = more cells survive). Conditions: first compound 0.001581 µM.
Method in brief: (§1)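 Cells from lung cancer lines were seeded into 1536-well plates and, one day later, dosed by pin tool. Treatments were either a single drug or a fixed dose of an anchor drug with five library-drug doses (not always all listed) in √10 steps. After 5 days, nuclei were stained in a one-step fixation (final 0.05% Triton X-100, 1% formaldehyde, 1 ug/ml Hoechst) and counted on 4× images, and relative viability is the treated-to-vehicle nuclei ratio, as the median of duplicate plates.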

Cell Line	relative viability
LC-2-ad	1.1
LCLC-97TM1	0.766
LCLC-103H	0.877
LK-2	0.178
LOU-NH91	0.391
LU99A	0.215
LXF-289	0.76
NCI-H23	0.212
NCI-H322M	0.979
NCI-H358	0.225
NCI-H441	0.313
NCI-H460	0.0278
NCI-H520	0.228
NCI-H522	0.953
NCI-H647	0.145
NCI-H1563	0.509
NCI-H1623	0.405

Same assay, conditions: first compound 0.005 µM

Cell Line	relative viability
201T	1.17
A-427	0.845
ABC-1	0.243
BEN	0.325
CAL-12T	0.298
COR-L23	0.739
COR-L 105	0.728
ChaGo-K-1	0.691
EKVX	0.972
EMC-BAC-2	0.922
H3255	0.956
HARA	0.727
HCC-15	0.323
HCC-44	1.12
HCC-827	0.755
HOP-62	0.85
LC-2-ad	1.03

Cell Line	relative viability
LCLC-97TM1	0.794
LCLC-103H	0.943
LK-2	0.202
LOU-NH91	0.321
LU99A	0.227
LXF-289	0.561
NCI-H23	0.207
NCI-H322M	1.11
NCI-H358	0.279
NCI-H441	0.388
NCI-H460	0.039
NCI-H520	0.276
NCI-H522	1.03
NCI-H647	0.149
NCI-H1563	0.551
NCI-H1623	0.551
NCI-H1792	0.594

Same assay, conditions: first compound 0.01581 µM

Cell Line	relative viability
201T	0.99
A-427	0.906
BEN	0.634
CAL-12T	0.401
COR-L23	0.65
COR-L 105	0.837
ChaGo-K-1	0.518
EKVX	0.787
EMC-BAC-2	1.19
EPLC-272H	0.205
H3255	0.653
HARA	0.733
HCC-15	0.278
HCC-44	0.96
HCC-827	0.664
HOP-62	0.987

Cell Line	relative viability
LC-2-ad	0.942
LCLC-97TM1	0.785
LCLC-103H	0.896
LK-2	0.191
LOU-NH91	0.33
LU99A	0.271
LXF-289	0.627
NCI-H358	0.357
NCI-H460	0.0382
NCI-H520	0.247
NCI-H522	1.2
NCI-H596	0.931
NCI-H647	0.171
NCI-H1563	0.52
NCI-H1623	0.572
NCI-H1792	0.496

Same assay, conditions: first compound 0.05 µM

Cell Line	relative viability
201T	1.23
A-427	0.897
ABC-1	0.369
BEN	0.392
CAL-12T	0.326
COR-L23	0.926
COR-L 105	0.862
ChaGo-K-1	0.633
EKVX	0.803
EMC-BAC-2	0.721
EPLC-272H	0.381
H3255	0.824
HARA	1.21
HCC-15	0.301
HCC-44	1.2
HCC-827	0.743
HOP-62	1.07
LC-2-ad	0.901

Cell Line	relative viability
LCLC-97TM1	0.857
LCLC-103H	0.886
LK-2	0.171
LOU-NH91	0.342
LU99A	0.266
LXF-289	0.749
NCI-H23	0.276
NCI-H322M	1.44
NCI-H358	0.417
NCI-H441	0.422
NCI-H460	0.0351
NCI-H520	0.212
NCI-H522	1.29
NCI-H596	0.551
NCI-H647	0.107
NCI-H1563	0.52
NCI-H1623	0.543
NCI-H1792	0.579

Each cell line was assayed with Cn1nnc2c(C(N)=O)ncn2c1=O [Temozolomide] + Cc1cc(Nc2cc(N3CCN(C)CC3)nc(Sc3ccc(NC(=O)C4CC4)cc3)n2)n[nH]1 [Tozasertib] (partner 0.1 µM) in the same assay as above. Conditions: first compound 0.2 µM.
Method in brief: as §1

Cell Line	relative viability
201T	1.01
A-427	0.201
ABC-1	0.158
BEN	0.465
CAL-12T	0.335
COR-L23	0.2
COR-L 105	0.342
ChaGo-K-1	0.263
EKVX	0.256
EMC-BAC-2	0.326
EPLC-272H	0.263
HARA	0.0933
HCC-15	0.522
HCC-44	0.795
HCC-78	0.282
HCC-366	0.097
HCC-827	0.428

Cell Line	relative viability
HOP-62	0.534
LC-2-ad	0.429
LCLC-97TM1	0.186
LCLC-103H	0.486
LK-2	0.153
LOU-NH91	0.548
LU99A	0.259
LXF-289	0.241
NCI-H23	0.4
NCI-H358	0.0983
NCI-H441	0.691
NCI-H460	0.441
NCI-H520	0.474
NCI-H522	0.449
NCI-H596	0.978
NCI-H647	0.263

Same assay, conditions: first compound 0.6325 µM

Cell Line	relative viability
201T	0.888
A-427	0.206
ABC-1	0.138
BEN	0.5
CAL-12T	0.339
COR-L23	0.213
COR-L 105	0.386
ChaGo-K-1	0.209
EKVX	0.395
EMC-BAC-2	0.309
EPLC-272H	0.191
H3255	0.534
HARA	0.112
HCC-15	0.412
HCC-44	0.953
HCC-78	0.487
HCC-366	0.0983
HCC-827	0.436
HOP-62	0.418

Cell Line	relative viability
LC-2-ad	0.517
LCLC-97TM1	0.242
LCLC-103H	0.481
LK-2	0.155
LOU-NH91	0.728
LU99A	0.262
LXF-289	0.208
NCI-H23	0.337
NCI-H322M	0.508
NCI-H358	0.101
NCI-H441	0.775
NCI-H460	0.418
NCI-H520	0.441
NCI-H522	0.586
NCI-H596	1.04
NCI-H647	0.307
NCI-H1623	0.421
NCI-H1648	0.525

Same assay, conditions: first compound 2 µM

Cell Line	relative viability
201T	0.987
A-427	0.219
ABC-1	0.196
BEN	0.415
CAL-12T	0.347
COR-L23	0.227
COR-L 105	0.453
ChaGo-K-1	0.3
EKVX	0.385
EMC-BAC-2	0.274
EPLC-272H	0.232
H3255	0.613
HARA	0.107
HCC-15	0.5
HCC-44	1.06
HCC-78	0.497
HCC-366	0.148
HCC-827	0.409
HOP-62	0.367

Cell Line	relative viability
LC-2-ad	0.505
LCLC-97TM1	0.212
LCLC-103H	0.566
LK-2	0.154
LOU-NH91	0.687
LU99A	0.275
LXF-289	0.216
NCI-H23	0.35
NCI-H322M	0.484
NCI-H358	0.104
NCI-H441	0.785
NCI-H460	0.518
NCI-H520	0.462
NCI-H522	0.56
NCI-H596	0.89
NCI-H647	0.412
NCI-H1623	0.365
NCI-H1648	0.397

Same assay, conditions: first compound 6.325 µM

Cell Line	relative viability
201T	0.943
A-427	0.152
ABC-1	0.164
BEN	0.526
CAL-12T	0.34
COR-L23	0.206
COR-L 105	0.378
ChaGo-K-1	0.191
EKVX	0.335
EMC-BAC-2	0.255
EPLC-272H	0.28
H3255	0.532
HARA	0.11
HCC-15	0.384
HCC-44	0.848
HCC-78	0.493
HCC-366	0.0779
HCC-827	0.458
HOP-62	0.376

Cell Line	relative viability
LC-2-ad	0.41
LCLC-97TM1	0.184
LCLC-103H	0.456
LK-2	0.169
LOU-NH91	0.641
LU99A	0.259
LXF-289	0.169
NCI-H23	0.381
NCI-H322M	0.546
NCI-H358	0.106
NCI-H441	0.62
NCI-H460	0.368
NCI-H520	0.428
NCI-H522	0.538
NCI-H596	0.769
NCI-H647	0.148
NCI-H1623	0.475
NCI-H1648	0.448

Same assay, conditions: first compound 20 µM

Cell Line	relative viability
201T	0.914
A-427	0.157
ABC-1	0.218
BEN	0.436
CAL-12T	0.382
COR-L23	0.198
COR-L 105	0.371
ChaGo-K-1	0.226
EKVX	0.42
EMC-BAC-2	0.314
EPLC-272H	0.252
H3255	0.17
HARA	0.108
HCC-15	0.599
HCC-44	0.996
HCC-78	0.425
HCC-366	0.15
HCC-827	0.114
HOP-62	0.348

Cell Line	relative viability
LC-2-ad	0.422
LCLC-97TM1	0.191
LCLC-103H	0.413
LK-2	0.151
LOU-NH91	0.482
LU99A	0.303
LXF-289	0.186
NCI-H23	0.249
NCI-H322M	0.4
NCI-H358	0.115
NCI-H441	0.611
NCI-H460	0.339
NCI-H520	0.426
NCI-H522	0.595
NCI-H596	1.01
NCI-H647	0.147
NCI-H1623	0.293
NCI-H1648	0.435
